# Patent publication US12110288B2, “MASP-2 inhibitors and methods of use” (Omeros Corporation, priority 2019, dated 2024)
# Structures can show the parent of a compound that is named as a salt.
# Target: T1, MASP-2 (CCP1-CCP2-SP) (Homo sapiens, UniProt O00187)
# T1 construct: 15 μL of Enzyme MASP-2 (CCP1-CCP2-SP) in Assay Buffer
# Assay: Enzymatic Assay for MASP-2
# Format: biochemical
# Conditions: fluorogenic substrate based on C2 cleavage site, room temperature, 20 mM HEPES pH 7.4
# Experimental: Enzymatic Assay for MASP-2
# The MASP-2 assay utilizes a fluorogenic substrate, based on the cleavage site for its natural substrate C2. The assay is run at room temperature in an assay buffer containing 20 mM HEPES, pH 7.4, 140 mM NaCl and 0.1% Tween 20. Assay parameters are adjusted such that the assay is linear with respect to time, enzyme, and substrate concentrations. Under these optimized assays conditions, IC50 values are equivalent to Ki values, except in a few cases of “tight binding” inhibitors. Cases of “tight binding” or possible “slow binding” inhibitors are handled by the methods described in Copeland R. A. (2013) Evaluation of Enzyme Inhibitors in Drug Discovery. 2nd Ed., John Wiley and Sons, Inc., Chapters 5-7.
# The MASP-2 assay protocol is carried out as follows. Test compounds are serially diluted in DMSO and then 100 nL of each dilution is transferred to the assay plate(s). 10 μL of Assay Buffer is added, followed by 15 μL of Enzyme MASP-2 (CCP1-CCP2-SP) in Assay Buffer. 15 μL of Substrate in Assay Buffer is then added and mixed to start the reactions. After 20 min at room temperature, 15 μL of a stop solution (0.1 M acetic acid) is added, mixed and the plates are read on a SpectraMax i3x Microplate Reader and exported as Excel files. Each assay plate included a “no inhibitor” (DMSO Only) control, a “no enzyme” control and a reference inhibitor control. % Activity values=100*(average test comp. fluorescence−average “no enzyme” fluorescence)/(average “DMSO only” fluorescence−average “no enzyme” fluorescence). IC50 and Ki values are very reproducible, falling well within ±2-fold.
# T1 sequence (O00187 445-686 limits assumed): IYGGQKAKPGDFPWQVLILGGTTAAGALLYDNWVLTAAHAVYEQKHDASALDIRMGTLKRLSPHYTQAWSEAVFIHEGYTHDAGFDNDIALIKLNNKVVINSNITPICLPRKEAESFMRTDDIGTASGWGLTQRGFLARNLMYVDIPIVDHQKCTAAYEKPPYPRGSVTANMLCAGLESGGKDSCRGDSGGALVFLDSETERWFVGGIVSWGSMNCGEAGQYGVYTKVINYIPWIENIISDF
# T1 sequence (O00187 298-444 partner limits assumed): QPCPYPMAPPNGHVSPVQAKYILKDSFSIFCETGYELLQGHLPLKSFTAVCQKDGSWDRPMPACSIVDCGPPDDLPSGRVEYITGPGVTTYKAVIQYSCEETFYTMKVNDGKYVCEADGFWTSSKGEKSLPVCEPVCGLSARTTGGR
row,SMILES,Ki [nM]
1,"O=C(Cn1c(-c2ccccc2)cnc(NC(CO)Cc2ccccc2)c1=O)NCc1cc2cnccc2[nH]1 (centres unmarked) [Compound 49, N-((1H-Pyrrolo[3,2-c]pyridin-2-yl)methyl)-2-(3-((1-hydroxy-3-phenylpropan-2-yl)amino)-2-oxo-6-phenylpyrazin-1(2H)-yl)acetamide trifluoroacetate]",< 500
2,Cc1nc(N)ccc1CNC(=O)Cn1c(-c2cccc3cc[nH]c23)cnc(NCCc2ccccc2)c1=O [Compound 85],< 500
3,"O=C(Cn1c(-c2ccccc2)cnc(NCC2(c3cccc(F)c3)CC2)c1=O)NCc1cc2cnccc2[nH]1 [Compound 64, N-((1H-Pyrrolo[3,2-c]pyridin-2-yl)methyl)-2-(3-(((1-(3-fluorophenyl)cyclopropyl)methyl)amino)-2-oxo-6-phenylpyrazin-1(2H)-yl)acetamide]",< 500
4,"CC(C)(C)OC(=O)N1CCC2(CC1)CCN(c1ncc(-c3ccccc3)n(CC(=O)NCc3cc4cnccc4[nH]3)c1=O)C2 [Compound 53, Tert-Butyl 2-(4-(2-(((1H-Pyrrolo[3,2-c]Pyridin-2-yl)Methyl)Amino)-2-Oxoethyl)-3-Oxo-5-Phenyl-3,4-Dihydropyrazin-2-yl)-2,8-Diazaspiro[4.5]Decane-8-Carboxylate]",< 500
5,"Cc1nc(N)ccc1CNC(=O)Cn1c(-c2cccc3cnccc23)cnc(NCCc2ccccc2)c1=O [Compound 24, N-((6-Amino-2-methylpyridin-3-yl)methyl)-2-(6-(isoquinolin-5-yl)-2-oxo-3-(phenethylamino)pyrazin-1(2H)-yl)acetamide]",< 500
6,"CSc1ncc(NCCc2ccccc2)c(=O)n1CC(=O)NCc1ccc2nc(N)[nH]c2c1 [Compound 5, N-((2-Amino-1H-Benzo[d]Imidazol-6-yl)Methyl)-2-(2-(Methylthio)-6-Oxo-5-(Phenethylamino)Pyrimidin-1(6H)-yl)Acetamide]",< 500
7,"O=C(Cn1c(-c2ccccc2)cnc(NCc2cc(F)cc(F)c2)c1=O)NCc1cc2cnccc2[nH]1 [Compound 154, N-((1H-Pyrrolo[3,2-c]pyridin-2-yl)methyl)-2-(3-((3,5-difluorobenzyl)amino)-2-oxo-6-phenylpyrazin-1(2H)-yl)acetamide]",< 500
8,"COc1cccc(C2(CNc3ncc(-c4ccccc4)n(CC(=O)NCc4cc5cnccc5[nH]4)c3=O)CC2)c1 [Compound 68, N-((1H-Pyrrolo[3,2-c]pyridin-2-yl)methyl)-2-(3-(((1-(3-methoxyphenyl)cyclopropyl)methyl)amino)-2-oxo-6-phenylpyrazin-1(2H)-yl)acetamide trifluoroacetate]",< 500
9,"O=C(Cn1c(-c2cnn(C3COC3)c2)cnc(NCCc2ccccc2)c1=O)NCc1cc2cnccc2[nH]1 [Compound 90, N-((1H-pyrrolo[3,2-c]pyridin-2-yl)methyl)-2-(6-(1-(oxetan-3-yl)-1H-pyrazol-4-yl)-2-oxo-3-(phenethylamino)pyrazin-1(2H)-yl)acetamide trifluoroacetate]",< 500
10,"O=C(Cn1c(-c2ccc(F)cc2)cnc(NCCc2ccccc2)c1=O)NCc1cc2cnccc2[nH]1 [Compound 106, N-((1H-Pyrrolo[3,2-c]pyridin-2-yl)methyl)-2-(6-(4-fluorophenyl)-2-oxo-3-(phenethylamino)pyrazin-1(2H)-yl)acetamide]",< 500
11,"Cn1cc(-c2cnc(NCCc3ccccc3)c(=O)n2CC(=O)NCc2cc3c(s2)CCNC3)cn1 [Compound 78, 2-(6-(1-Methyl-1H-Pyrazol-4-yl)-2-Oxo-3-(Phenethylamino)Pyrazin-1(2H)-yl)-N-((4,5,6,7-Tetrahydrothieno[3,2-c]Pyridin-2-yl)Methyl)Acetamide]",500 to 2500
12,"Cc1nc(N)ccc1CNC(=O)Cn1c(-c2cncnc2)cnc(NCCc2ccccc2)c1=O [Compound 23, N-((6-Amino-2-methylpyridin-3-yl)methyl)-2-(2-oxo-3-(phenethylamino)-6-(pyrimidin-5-yl)pyrazin-1(2H)-yl)acetamide]",< 500
13,"O=C(Cn1c(-c2ccccc2)cnc(NCCCc2ccccc2)c1=O)NCc1cc2cnccc2[nH]1 [Compound 48, N-((1H-Pyrrolo[3,2-c]pyridin-2-yl)methyl)-2-(2-oxo-6-phenyl-3-((3-phenylpropyl)amino)pyrazin-1(2H)-yl)acetamide trifluoroacetate]",< 500
14,"CC(C)(C)OC(=O)N1CC(n2cc(-c3cnc(NCCc4ccccc4)c(=O)n3CC(=O)NCc3cc4cnccc4[nH]3)cn2)C1 [Compound 111, tert-Butyl 3-(4-(1-(2(((1H-pyrrolo[3,2-c]pyridin-2-yl)methyl)amino)-2-oxoethyl)-6-oxo-5-(phenethylamino)-1,6-dihydropyrazin-2-yl)-1H-pyrazol-1-yl)azetidine-l-carboxylate]",< 500
15,"Cc1nn(C2CC2)cc1-c1cnc(NCCc2ccccc2)c(=O)n1CC(=O)NCc1cc2cnccc2[nH]1 [Compound 114, N-((1H-Pyrrolo[3,2-c]pyridin-2-yl)methyl)-2-(6-(1-cyclopropyl-3-methyl-1H-pyrazol-4-yl)-2-oxo-3-(phenethylamino)pyrazin-1(2H)-yl)acetamide]",< 500
16,"Cn1cc(-c2cnc(NCCc3ccccc3)c(=O)n2CC(=O)NCc2cnc3[nH]ccc3c2)cn1 [Compound 131, N-((1H-Pyrrolo[2,3-b]Pyridin-5-yl)Methyl)-2-(6-(1-Methyl-1H-Pyrazol-4-yl)-2-Oxo-3-(Phenethylamino)Pyrazin-1(2H)-yl)Acetamide]",> 10000
17,"COc1ccccc1CCNc1ncc(-c2ccccc2)n(CC(=O)NCc2cc3cnccc3[nH]2)c1=O [Compound 141, N-((1H-Pyrrolo[3,2-c]pyridin-2-yl)methyl)-2-(3-((2-methoxyphenethyl)amino)-2-oxo-6-phenylpyrazin-1(2H)-yl)acetamide]",< 500
18,"Cc1nc(N)ccc1CNC(=O)Cn1c(-c2cnn(C)c2)cnc(NCCc2ccccc2)c1=O [Compound 25, N-((6-Amino-2-methylpyridin-3-yl)methyl)-2-(6-(1-methyl-1H-pyrazol-4-yl)-2-oxo-3-(phenethylamino)pyrazin-1(2H)-yl)acetamide]",< 500
19,"Cc1nc(N)ccc1CNC(=O)Cn1c(-c2ccccc2)cnc(N2CCOCC2)c1=O [Compound 44, N-((6-Amino-2-methylpyridin-3-yl)methyl)-2-(3-morpholino-2-oxo-6-phenylpyrazin-1(2H)-yl)acetamide]",< 500
20,"O=C(Cn1c(-c2ccccc2)cnc(NCC2(c3ccc(Cl)cc3)CC2)c1=O)NCc1cc2cnccc2[nH]1 [Compound 57, N-((1H-Pyrrolo[3,2-c]pyridin-2-yl)methyl)-2-(3-(((1-(4-chlorophenyl)cyclopropyl)methyl)amino)-2-oxo-6-phenylpyrazin-1(2H)-yl)acetamide trifluoroacetate]",< 500
21,"O=C(Cn1c(-c2ccccc2)cnc(NCC2(c3ccccc3)COC2)c1=O)NCc1cc2cnccc2[nH]1 [Compound 47, N-((1H-pyrrolo[3,2-c]pyridin-2-yl)methyl)-2-(2-oxo-6-phenyl-3-(((3-phenyloxetan-3-yl)methyl)amino)pyrazin-1(2H)-yl)acetamide trifluoroacetate]",< 500
22,"O=C(Cn1c(-c2ccccc2)cnc(NCC(F)(F)c2ccccc2)c1=O)NCc1cc2cnccc2[nH]1 [Compound 128, N-((1H-Pyrrolo[3,2-c]pyridin-2-yl)methyl)-2-(3-((2,2-difluoro-2-phenylethyl)amino)-2-oxo-6-phenylpyrazin-1(2H)-yl)acetamide trifluoroacetate]",< 500
23,"Cc1ccc(C)c(-c2cnc(NCCc3ccccc3)c(=O)n2CC(=O)NCc2cc3cnccc3[nH]2)c1 [Compound 108, N-((1H-Pyrrolo[3,2-c]pyridin-2-yl)methyl)-2-(6-(2,5-dimethylphenyl)-2-oxo-3-(phenethylamino)pyrazin-1(2H)-yl)acetamide]",< 500
24,"Cn1cc(-c2cnc(NCCc3ccccc3)c(=O)n2CC(=O)NCc2ccc3c(c2)CCNC3)cn1 [Compound 80, 2-(6-(1-Methyl-1H-Pyrazol-4-yl)-2-Oxo-3-(Phenethylamino)Pyrazin-1(2H)-yl)-N-((1,2,3,4-Tetrahydroisoquinolin-6-yl)Methyl)Acetamide]",2500 to 10000
25,"O=C(Cn1c(-c2ccccc2)cnc(NCC2(c3cccc(Cl)c3)CC2)c1=O)NCc1cc2cnccc2[nH]1 [Compound 71, N-((1H-Pyrrolo[3,2-c]pyridin-2-yl)methyl)-2-(3-(((1-(3-chlorophenyl)cyclopropyl)methyl)amino)-2-oxo-6-phenylpyrazin-1(2H)-yl)acetamide trifluoroacetate]",< 500
26,"O=C(Cn1c(-c2ccccc2)cnc(NCC2(c3ccc(C(F)(F)F)cc3)CC2)c1=O)NCc1cc2cnccc2[nH]1 [Compound 60, N-((1H-Pyrrolo[3,2-c]pyridin-2-yl)methyl)-2-(2-oxo-6-phenyl-3-(((1-(4-(trifluoromethyl)phenyl)cyclopropyl)methyl)amino)pyrazin-1(2H)-yl)acetamide trifluoroacetate]",< 500
